Key:
[1] = tested on: K-562; assay: Inhibition of cells growth by colorimetric assay (SRB), K-562; assay type: cell-based
Procedure, shortened: (§1)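 Cells in RPMI 1640 with 10% FBS were seeded at 5×10^3 per well, allowed 18 h to attach, then exposed to compound (10 to 10^−8 μg/ml, in DMSO/EtOH/PBS 0.5:0.5:99) for 48 h. After TCA fixation and SRB staining, bound dye was solubilized in Tris and OD read at 490 nm; GI, TGI and LC derived from triplicates.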

[2] = tested on: A-549; assay: Inhibition of cells growth by colorimetric assay (SRB), A-549; assay type: cell-based
Procedure, shortened: as §1

[3] = tested on: SK-MEL-28; assay: Inhibition of cells growth by colorimetric assay (SRB), SK-MEL-28; assay type: cell-based
Procedure, shortened: as §1

[4] = tested on: HT-29; assay: Inhibition of cells growth by colorimetric assay (SRB), HT-29; assay type: cell-based
Procedure, shortened: as §1

[5] = tested on: LoVo; assay: Inhibition of cells growth by colorimetric assay (SRB), LoVo; assay type: cell-based
Procedure, shortened: as §1

[6] = tested on: LoVo-Dox; assay: Inhibition of cells growth by colorimetric assay (SRB), LoVo-Dox; assay type: cell-based
Procedure, shortened: as §1

[7] = tested on: DU-145; assay: Inhibition of cells growth by colorimetric assay (SRB), DU-145; assay type: cell-based
Procedure, shortened: as §1

[8] = tested on: LNCaP; assay: Inhibition of cells growth by colorimetric assay (SRB), LNCaP; assay type: cell-based
Procedure, shortened: as §1

[9] = tested on: SK-BR-3; assay: Inhibition of cells growth by colorimetric assay (SRB), SK-BR-3; assay type: cell-based
Procedure, shortened: as §1

[10] = tested on: IGROV-1; assay: Inhibition of cells growth by colorimetric assay (SRB), IGROV-1; assay type: cell-based
Procedure, shortened: as §1

[11] = tested on: IGROV-ET; assay: Inhibition of cells growth by colorimetric assay (SRB), IGROV-ET; assay type: cell-based
Procedure, shortened: as §1

[12] = tested on: SK-OV-3; assay: Inhibition of cells growth by colorimetric assay (SRB), SK-OV-3; assay type: cell-based
Procedure, shortened: as §1

[13] = tested on: PANC-1; assay: Inhibition of cells growth by colorimetric assay (SRB), PANC-1; assay type: cell-based
Procedure, shortened: as §1

[14] = tested on: HMEC1; assay: Inhibition of cells growth by colorimetric assay (SRB), HMEC1; assay type: cell-based
Procedure, shortened: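 First, cells were plated at 5×10^3 per well and left 18 h to attach. Next, compound was added over 10 to 10^−8 μg/ml for 48 h. Finally, cells were TCA-fixed, SRB-stained and absorbance read at 490 nm.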

[15] = tested on: Liver
Excerpt: (§2) Toxicity was asssessed by the methods reported in Toxicology in Vitro, 15 (2001) 571-577, J. Luber Narod et al.: “Evaluation of the use of in vitro methodolodies as tools for screening new compounds for potential in vivo toxicity”.

[16] = tested on: Heart
Excerpt: as §2

[17] = tested on: Myelo
Excerpt: as §2

[18] = tested on: Skeletal
Excerpt: as §2

[19] = tested on: Kidney
Excerpt: as §2

COc1cc2c(cc1O)CCN[C@]21CS[C@@H]2c3c(OC(=O)CCCCC4SCC5NC(=O)NC54)c(C)c4c(c3[C@H](COC1=O)N1C2[C@H]2c3c(cc(C)c(OC)c3OC(=O)CCCCC3SCC5NC(=O)NC53)C[C@@H]([C@@H]1O)N2C)OCO4 (some centres unmarked) [Compound 172]
GI50 ([1]; Homo sapiens, K562, 48 h, SRB assay, 48 hours exposure, read-out: K-562 GI50): 0.00603 µM | LC50 (50% cell killing) ([1]; Homo sapiens, K562, 48 h, read-out: K-562 LC50, SRB assay, 48 hours exposure): 0.0353 µM | K-562 TGI ([1]; SRB assay, 48 hours exposure): 9.98E-09 | GI50 ([2]; Homo sapiens, A549, 48 h, SRB assay, 48 hours exposure, read-out: A-549 GI50): 0.241 µM | LC50 (concentration for 50% cell killing) ([2]; Homo sapiens, A549, 48 h, read-out: A-549 LC50, SRB assay, 48 hours exposure): 0.853 µM | A-549 TGI ([2]; SRB assay, 48 hours exposure): 4.59E-07 | GI50 ([3]; Homo sapiens, SK-MEL-28, 48 h, SRB assay, 48 hours exposure, read-out: MEL-28 GI50): 0.00131 µM | CC50 ([3]; Homo sapiens, SK-MEL-28, 48 h, read-out: MEL-28 LC50, SRB assay, 48 hours exposure): 0.00797 µM | MEL-28 TGI ([3]; SRB assay, 48 hours exposure): 3.22E-09 | GI50 ([4]; Homo sapiens, HT-29, 48 h, SRB assay, 48 hours exposure, read-out: HT-29 GI50): 0.0388 µM | LC50 (concentration for 50% cell killing) ([4]; Homo sapiens, HT-29, 48 h, read-out: HT-29 LC50, SRB assay, 48 hours exposure): 8.53 µM | HT-29 TGI ([4]; SRB assay, 48 hours exposure): 1.43E-07 | GI50 ([5]; Homo sapiens, LoVo, 48 h, SRB assay, 48 hours exposure, read-out: LOVO GI50): 0.226 µM | LC50 (concentration for 50% cell killing) ([5]; Homo sapiens, LoVo, 48 h, read-out: LOVO LC50, SRB assay, 48 hours exposure): 0.853 µM | LOVO TGI ([5]; SRB assay, 48 hours exposure): 4.61E-07 | GI50 ([6]; Homo sapiens, 48 h, SRB assay, 48 hours exposure, read-out: LOVO-DOX GI50): 2.88 µM | CC50 ([6]; Homo sapiens, 48 h, read-out: LOVO-DOX LC50, SRB assay, 48 hours exposure): 8.53 µM | LOVO-DOX TGI ([6]; SRB assay, 48 hours exposure): 7.23E-06 | GI50 ([7]; Homo sapiens, DU-145, 48 h, SRB assay, 48 hours exposure, read-out: DU-145 GI50): 0.0379 µM | CC50 ([7]; Homo sapiens, DU-145, 48 h, read-out: DU-145 LC50, SRB assay, 48 hours exposure): 8.53 µM | DU-145 TGI ([7]; SRB assay, 48 hours exposure): 8.31E-08 | GI50 ([8]; Homo sapiens, LNCaP, 48 h, read-out: LNCAP GI50, SRB assay, 48 hours exposure): 0.0277 µM | CC50 ([8]; Homo sapiens, LNCaP, 48 h, read-out: LNCAP LC50, SRB assay, 48 hours exposure): 0.0668 µM | LNCAP TGI ([8]; SRB assay, 48 hours exposure): 4.31E-08 | GI50 ([9]; Homo sapiens, SK-BR-3, 48 h, SRB assay, 48 hours exposure, read-out: SK-BR3 GI50): 0.0502 µM | CC50 ([9]; Homo sapiens, SK-BR-3, 48 h, read-out: SK-BR3 LC50, SRB assay, 48 hours exposure): 0.785 µM | SK-BR3 TGI ([9]; SRB assay, 48 hours exposure): 2.00E-07 | GI50 ([10]; Homo sapiens, IGROV-1, 48 h, SRB assay, 48 hours exposure, read-out: IGROV GI50): 0.0142 µM | CC50 ([10]; Homo sapiens, IGROV-1, 48 h, read-out: IGROV LC50, SRB assay, 48 hours exposure): 0.0636 µM | IGROV TGI ([10]; SRB assay, 48 hours exposure): 3.01E-08 | GI50 ([11]; Homo sapiens, 48 h, SRB assay, 48 hours exposure, read-out: IGROV-ET GI50): 0.165 µM | CC50 ([11]; Homo sapiens, 48 h, read-out: IGROV-ET LC50, SRB assay, 48 hours exposure): 0.853 µM | IGROV-ET TGI ([11]; SRB assay, 48 hours exposure): 4.18E-07 | GI50 ([12]; Homo sapiens, SK-OV-3, 48 h, SRB assay, 48 hours exposure, read-out: SK-OV3 GI50): 0.219 µM | LC50 ([12]; Homo sapiens, SK-OV-3, 48 h, read-out: SK-OV3 LC50, SRB assay, 48 hours exposure): 0.853 µM | SK-OV3 TGI ([12]; SRB assay, 48 hours exposure): 5.09E-07 | GI50 ([13]; Homo sapiens, PANC-1, 48 h, SRB assay, 48 hours exposure, read-out: PANC-1 GI50): 0.326 µM | LC50 (concentration for 50% net cell kill) ([13]; Homo sapiens, PANC-1, 48 h, read-out: PANC-1 LC50, SRB assay, 48 hours exposure): 8.53 µM | PANC-1 TGI ([13]; SRB assay, 48 hours exposure): 8.34E-07 | GI50 ([14]; Homo sapiens, HMEC-1, 48 h, SRB assay, 48 hours exposure, read-out: HMEC-1 GI50): 0.432 µM | LC50 ([14]; Homo sapiens, HMEC-1, 48 h, read-out: HMEC-1 LC50, SRB assay, 48 hours exposure): 8.53 µM | HMEC-1 TGI ([14]; SRB assay, 48 hours exposure): 8.53E-06 | Toxicity Data Liver [15]: 2.47E-07 | Toxicity Data Heart [16]: 7.52E-07 | Toxicity Data Myelo [17]: 3.81E-07 | Toxicity Data Skeletal [18]: 8.53E-07 | Toxicity Data Kidney [19]: 7.93E-07

Reference: patent publication US7759345B2, “Antitumoral derivatives of ET-743” (priority 2001, dated 2010)
